Laboratory results published in ChEMBL document CHEMBL3045100, “Comparative molecular similarity indices analysis of some 1-substituted imidazole analogs as Candida albicans P450-demethylase inhibitors” (2013).
In brackets after ≈: the same amount, converted by molar mass.

System: Candida albicans
Test: Antifungal activity against Candida albicans assessed as growth inhibition
Assay type: functional
Settings: for MIC: Candida albicans

| SMILES | -logMIC | MIC [µg/mL] |
| --- | --- | --- |
| OC(Cn1ccnc1)c1ccc(Cl)cc1 (configuration not stated) | 2.4 | 250 (≈ 1120 µM) |
| O=C(Cn1ccnc1)c1ccc(Cl)cc1 | 2 | 100 (≈ 453 µM) |
| Cc1ncc([N+](=O)[O-])n1CCOC(c1ccccc1)c1cccs1 (configuration not stated) | 2.6 | 400 (≈ 1160 µM) |
| Cc1nccn1CC(=O)c1ccc(Br)cc1 | 2.48 | 300 (≈ 1070 µM) |
| COc1ccc(NC(=S)Nn2c(-c3ccc([N+](=O)[O-])cc3)cnc2S)cc1 | 0.29 | 1.95 (≈ 4.86 µM) |
| O=[N+]([O-])c1ccc(-c2cnc(S)n2NC(=S)Nc2cccc3ccccc23)cc1 | 2.7 | > 500 |
| O=C(Cn1ccnc1)c1ccc(Br)cc1 | 2.3 | 250 (≈ 943 µM) |
| OC(Cn1ccnc1)c1ccc(Br)cc1 (configuration not stated) | 2.3 | 200 (≈ 749 µM) |
| Cc1nc([N+](=O)[O-])cn1CC(CNc1ccccc1)Nc1ccccc1 (configuration not stated) | 2.3 | 200 (≈ 569 µM) |
| Cc1nc([N+](=O)[O-])cn1CC(=O)CNc1ccccc1 | 2.6 | 400 (≈ 1460 µM) |
| Cc1ccc(NCC(=O)Cn2cc([N+](=O)[O-])nc2C)cc1 | 2.6 | 400 (≈ 1390 µM) |
| COc1ccccc1NCC(=O)Cn1cc([N+](=O)[O-])nc1C | 2.6 | 400 (≈ 1310 µM) |
| Cc1nc([N+](=O)[O-])cn1CC(=O)CNc1cccc(Cl)c1 | 2.6 | 400 (≈ 1300 µM) |
| Cc1ncc([N+](=O)[O-])n1CC(=O)CNc1ccc(Cl)cc1 | 2.6 | 800 (≈ 2590 µM) |
| Cc1nccn1CC(=O)Nc1cccc(O)c1 | 2.9 | 800 (≈ 3460 µM) |
| Cc1ncc([N+](=O)[O-])n1CC(=O)Nc1cccc(O)c1 | 2.9 | 800 (≈ 2900 µM) |
| O=C(Cn1ccnc1)Nc1cccc(O)c1 | 2.9 | 800 (≈ 3680 µM) |
| Cc1ncc([N+](=O)[O-])n1C(C)C(=O)Nc1cccc(O)c1 (configuration not stated) | 2.6 | 400 (≈ 1380 µM) |
| O=C(CCn1ccnc1)Nc1cccc(O)c1 | 2.9 | 800 (≈ 3460 µM) |
| Cc1nccn1CCC(=O)Nc1cccc(O)c1 | 2.9 | 800 (≈ 3260 µM) |
| Cc1ncc([N+](=O)[O-])n1CCC(=O)Nc1cccc(O)c1 | 2.9 | 800 (≈ 2760 µM) |
| Cc1ncc([N+](=O)[O-])n1CCOC(Cc1cccs1)c1ccccc1 (configuration not stated) | 2.6 | 400 (≈ 1120 µM) |

| SMILES | -logMIC | MIC [µg/mL] |
| --- | --- | --- |
| Cc1ncc([N+](=O)[O-])n1CCOC(c1ccccc1)c1cnccn1 (configuration not stated) | 2.6 | 400 (≈ 1180 µM) |
| Cc1ncc([N+](=O)[O-])n1CCOC(c1ccccc1)c1ccccc1S (configuration not stated) | 2.6 | 400 (≈ 1080 µM) |
| Cc1ccccc1NC(=S)Nn1ccnc1-c1ccc(Cl)cc1 | 2.03 | 100 (≈ 292 µM) |
| Cc1ccc(NC(=S)Nn2ccnc2-c2ccc(Cl)cc2)cc1 | 2.69 | 500 (≈ 1460 µM) |
| COc1ccccc1NC(=S)Nn1ccnc1-c1ccc(Cl)cc1 | 1.97 | 100 (≈ 279 µM) |
| COc1ccc(NC(=S)Nn2ccnc2-c2ccc(Cl)cc2)cc1 | 2.02 | 100 (≈ 279 µM) |
| S=C(Nc1cccc2ccccc12)Nn1ccnc1-c1ccc(Cl)cc1 | 2.42 | 250 (≈ 660 µM) |
| Cc1ccccc1NC(=S)Nn1ccnc1-c1ccc(Br)cc1 | 2.01 | 100 (≈ 258 µM) |
| Cc1ccc(NC(=S)Nn2ccnc2-c2ccc(Br)cc2)cc1 | 2.41 | 250 (≈ 645 µM) |
| COc1ccccc1NC(=S)Nn1ccnc1-c1ccc(Br)cc1 | 2.4 | 250 (≈ 620 µM) |
| COc1ccc(NC(=S)Nn2ccnc2-c2ccc(Br)cc2)cc1 | 2 | 100 (≈ 248 µM) |
| S=C(Nc1cccc2ccccc12)Nn1ccnc1-c1ccc(Br)cc1 | 2.01 | 100 (≈ 236 µM) |
| Cc1nc([N+](=O)[O-])cn1CCC(=O)Nc1ccccc1 | 3 | 1000 (≈ 3650 µM) |
| Cc1nc([N+](=O)[O-])cn1CCC(=O)Nc1ccccc1Cl | 2.93 | 1000 (≈ 3240 µM) |
| Cc1nc([N+](=O)[O-])cn1CCC(=O)Nc1cccc(Cl)c1 | 2.71 | 500 (≈ 1620 µM) |
| Cc1nc([N+](=O)[O-])cn1CCC(=O)Nc1ccccc1S | 2.68 | 500 (≈ 1630 µM) |
| Cc1nc([N+](=O)[O-])cn1CCC(=O)Nc1ccccc1[N+](=O)[O-] | 2.95 | 1000 (≈ 3130 µM) |
| Cc1nc([N+](=O)[O-])cn1CCC(=O)Nc1c(Br)cc(Br)cc1Br | 2.64 | 500 (≈ 979 µM) |
| Cc1nc([N+](=O)[O-])cn1CCC(=O)Nc1cccc2ccccc12 | 2.74 | 500 (≈ 1540 µM) |
| CCCNCCn1c([N+](=O)[O-])cnc1C | 1.68 | 50 (≈ 236 µM) |
| Cc1ncc([N+](=O)[O-])n1CCNC(C)C | 1.39 | 25 (≈ 118 µM) |
| Cc1ncc([N+](=O)[O-])n1CCN(C(C)C)C(C)C | 1.38 | 25 (≈ 98.3 µM) |

| SMILES | -logMIC | MIC [µg/mL] |
| --- | --- | --- |
| Cc1ncc([N+](=O)[O-])n1CCNc1ccccc1 | 1.7 | 50 (≈ 203 µM) |
| Cc1ncc([N+](=O)[O-])n1CCNc1ccccc1[N+](=O)[O-] | 2 | 100 (≈ 343 µM) |
| Cc1ncc([N+](=O)[O-])n1CCNc1ccc([N+](=O)[O-])cc1 | 1.1 | 12.5 (≈ 42.9 µM) |
| Cc1ccccc1NC(=S)Nn1c(-c2ccc([N+](=O)[O-])cc2)cnc1S | 1.5 | 31.2 (≈ 81.1 µM) |
| Cc1ccc(NC(=S)Nn2c(-c3ccc([N+](=O)[O-])cc3)cnc2S)cc1 | 0.6 | 3.91 (≈ 10.1 µM) |
| Cc1ncc([N+](=O)[O-])n1CC(O)CNCC(C)C (configuration not stated) | 1.99 | 100 (≈ 390 µM) |
| CCCCNCC(O)Cn1c([N+](=O)[O-])cnc1C (configuration not stated) | 1.99 | 100 (≈ 390 µM) |
| Cc1ncc([N+](=O)[O-])n1CC(O)COc1ccccc1 (configuration not stated) | 2.06 | 100 (≈ 361 µM) |
| Cc1ccccc1OCC(O)Cn1c([N+](=O)[O-])cnc1C (configuration not stated) | 2 | 100 (≈ 343 µM) |
| Cc1ncc([N+](=O)[O-])n1CC(O)COc1cccc2ccccc12 (configuration not stated) | 2.06 | 100 (≈ 305 µM) |
| Cc1ncc([N+](=O)[O-])n1CC(O)COc1ccc2ccccc2c1 (configuration not stated) | 2.69 | 500 (≈ 1530 µM) |
| Cc1ncc([N+](=O)[O-])n1CN(C(C)C)C(C)C | 2 | 100 (≈ 416 µM) |
| Cc1ncc([N+](=O)[O-])n1CNc1ccccc1 | 1.94 | 100 (≈ 431 µM) |
| Cc1ccc(NCn2c([N+](=O)[O-])cnc2C)cc1 | 1.98 | 100 (≈ 406 µM) |
| Cc1ncc([N+](=O)[O-])n1CNc1cccc2ccccc12 | 2 | 100 (≈ 354 µM) |
| Cc1nccn1CC(=O)c1ccc(Cl)cc1 | 2.26 | 200 (≈ 852 µM) |
| Cc1nccn1CC(=O)c1ccc(-c2ccccc2)cc1 | 2.48 | 300 (≈ 1090 µM) |
| Cc1nccn1CC(O)c1ccc(Cl)cc1 (configuration not stated) | 2.31 | 200 (≈ 845 µM) |
| Cc1nccn1CC(O)c1ccc(Br)cc1 (configuration not stated) | 2.35 | 200 (≈ 711 µM) |
| Cc1nccn1CC(O)c1ccc([N+](=O)[O-])cc1 (configuration not stated) | 2.39 | 300 (≈ 1210 µM) |
| Cc1nccn1CC(O)c1ccc(-c2ccccc2)cc1 (configuration not stated) | 2.33 | 200 (≈ 719 µM) |
| Cc1nccn1CC(=O)c1ccc([N+](=O)[O-])cc1 | 2.9 | 200 (≈ 816 µM) |
